# Reference: ChEMBL document CHEMBL5321197, “Computational, in vitro and radiation-based in vivo studies on acetamide quinazolinone derivatives as new proposed purine nucleoside phosphorylase inhibitors for breast cancer” (Eur J Med Chem, 2023)
# How the values were obtained:
# MCF7 = assay: Cytotoxicity against human MCF7 cells assessed as reduction in cell viability incubated for 24 hrs by MTT assay; type: functional, cell-based; settings: MCF7, 24 h
# [1] = target: T1, Purine nucleoside phosphorylase (Homo sapiens, UniProt P00491); assay: Inhibition of PNP (unknown origin) by fluorescent based microplate reader analysis
# T1 sequence (P00491 whole entry): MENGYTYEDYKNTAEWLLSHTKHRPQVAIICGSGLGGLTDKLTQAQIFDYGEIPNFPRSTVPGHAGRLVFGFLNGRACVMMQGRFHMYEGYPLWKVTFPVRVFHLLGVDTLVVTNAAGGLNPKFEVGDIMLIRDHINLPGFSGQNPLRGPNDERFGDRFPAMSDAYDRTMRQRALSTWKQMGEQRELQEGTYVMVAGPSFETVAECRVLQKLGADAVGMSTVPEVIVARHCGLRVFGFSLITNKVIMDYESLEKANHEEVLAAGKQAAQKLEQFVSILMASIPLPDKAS
# MDA-MB-468 = assay: Cytotoxicity against human MDA-MB-468 cells assessed as reduction in cell viability incubated for 24 hrs by MTT assay; type: functional, cell-based; settings: MDA-MB-468, 24 h
# T47D = assay: Cytotoxicity against human T47D cells assessed as reduction in cell viability incubated for 24 hrs by MTT assay; type: functional, cell-based
# BT-549 = assay: Cytotoxicity against human BT-549 cells assessed as reduction in cell viability incubated for 24 hrs by MTT assay; type: functional, cell-based; settings: BT-549, 24 h
# Hs-578T = assay: cells; type: functional, cell-based; settings: Homo sapiens, 24 h
# Description: Cytotoxicity against human Hs-578T cells assessed as reduction in cell viability incubated for 24 hrs by MTT assay
# MDA-MB-231 = assay: Cytotoxicity against human MDA-MB-231 cells assessed as reduction in cell viability incubated for 24 hrs by MTT assay; type: functional, cell-based; settings: MDA-MB-231, 24 h
# MCF-10A = assay: Cytotoxicity against human MCF-10A cells assessed as reduction in cell viability incubated for 24 hrs by MTT assay; type: functional, cell-based
IC50 [1],SMILES,IC50 (MCF7),also measured
2.12 µM,CCOC(=O)c1ccccc1NC(=O)CSc1nc2ccc(C)cc2c(=O)n1-c1ccccc1,926 µM,
,COc1cc(NC(=O)Cn2c(=S)n(-c3ccccc3)c(=O)c3cc(C)ccc32)cc(OC)c1,9.87 µM,
5.63 µM,COc1ccc(NC(=O)CSc2nc3ccc(C)cc3c(=O)n2-c2ccccc2)cc1OC,383 µM,
0.998 µM,CC(=O)c1ccccc1NC(=O)Cn1c(=S)n(-c2ccccc2)c(=O)c2cc(C)ccc21,87.2 µM,
0.173 µM,CCOC(=O)N1CCC(NC(=O)Cn2c(=S)n(-c3ccccc3)c(=O)c3cc(C)ccc32)CC1,1.77 µM,
0.338 µM,COc1ccc(NC(=O)Cn2c(=S)n(-c3ccccc3)c(=O)c3cc(C)ccc32)cc1OC,5.16 µM,
0.442 µM,Cc1ccc2c(c1)c(=O)n(-c1ccccc1)c(=S)n2CC(=O)NCCc1ccccc1,48.1 µM,
1.13 µM,Cc1ccc2nc(SCC(=O)NCCc3ccccc3)n(-c3ccccc3)c(=O)c2c1,104 µM,
0.255 µM,COc1cc(NC(=O)Cn2c(=S)n(-c3ccccc3)c(=O)c3cc(C)ccc32)cc(OC)c1OC,3.73 µM,
0.159 µM,CCOC(=O)c1ccccc1NC(=O)Cn1c(=S)n(-c2ccccc2)c(=O)c2cc(C)ccc21,0.99 µM,IC50 (MDA-MB-468): 5.83 µM; IC50 (T47D): 4.54 µM; IC50 (BT-549): 6.84 µM; IC50 (Hs-578T): 22.3 µM; IC50 (MDA-MB-231): 6.01 µM; IC50 (MCF-10A): 67.3 µM
,COc1cc2ncnc(Nc3ccc(F)c(Cl)c3)c2cc1OCCCN1CCOCC1 [GEFITINIB],,IC50 (T47D): 3.47 µM
0.041 µM,Nc1nc2c(Cc3cccnc3)c[nH]c2c(=O)[nH]1 [PELDESINE],,
3.18 µM,COc1cc(NC(=O)CSc2nc3ccc(C)cc3c(=O)n2-c2ccccc2)cc(OC)c1OC,158 µM,
1.32 µM,COc1cc(NC(=O)CSc2nc3ccc(C)cc3c(=O)n2-c2ccccc2)cc(OC)c1,8.5 µM,
1.88 µM,CCOC(=O)N1CCC(NC(=O)CSc2nc3ccc(C)cc3c(=O)n2-c2ccccc2)CC1,31 µM,
3.35 µM,CC(=O)c1ccccc1NC(=O)CSc1nc2ccc(C)cc2c(=O)n1-c1ccccc1,278 µM,
